We go through 4 compounds from US6540999B1, “Immunomodulatory methods using Lewisx oligosacchardies” (President and Fellows of Harvard College, priority 1996, dated 2003).

The test system of assay [1] is IgE response. Set-up: species or system mice. To be noted: mouse, in vivo.
Assay [2] concerns IgE response. Details: species or system mice. The following applies: mouse, in vivo. This is another data set of the same source.
Assay [3] deals with IgE response. The assay can be described thus: Serum IgE titers after intranasal administration, HSA as antigen. The format is in vivo. The following applies: coadministration with HSA, mice, FIG. 4A.
The test system of assay [4] is Human PBMCs. The assay can be described thus: IL-10 production by human PBMCs from allergic or cancer patients (ELISA). Set-up: unit not given here. The following applies: 24 hours; LPS 20 μg/ml, HSA and conjugates 100 μg/ml. In kind it is cell-based. The source says: (§1) Human PBMCs were obtained from: 1) an individual who was allergic to pollen; 2) an individual suffering from lung carcinoma and 3) an individual suffering from colon carcinoma.
Background: ELISA stands for enzyme-linked immunosorbent assay.

Another assay concerns Granuloma macrophages. In kind it is cell-based, C57BL/6 mice.
The test system of assay [5] is Human PBMCs. Put plainly: Proliferation of human PBMCs from allergic or cancer patients (3H-thymidine uptake). In kind it is cell-based. To be noted: 3H-thymidine uptake at 90 hours; LPS 20 μg/ml, HSA and conjugates 100 μg/ml.
Text: as §1

In assay [6] the test system is naive splenocytes, T cell, B cell and non-T, non-B spleen cell populations. The assay can be described thus: IFN-γ production in vitro by spleen cell subpopulations. The format is cell-based, CBA mice. Details: unit not given here. The source says: (§2) In this example, the types of cells responsive to the multimeric sugar conjugates, and the types of cytokines produced, either in vitro or in vivo, were investigated further. For the in vitro studies, naive splenocytes were isolated from CBA mice and fractionated into T cell, B cell and non-T, non-B spleen cell populations. B cell populations were defined by expression of the B220 surface marker (i.e., B220^+ cells). T cell populations were defined by expression of CD5 or Thy surface markers (i.e., CD5^+ or Thy+).

Assay [7] shares this test system. The assay can be described thus: IL-10 production in vitro by spleen cell subpopulations. In kind it is cell-based, CBA mice. Details: unit not given here.
Text: as §2

[8] abbreviates: naive CBA splenocytes, unfractionated.

As to `CC(=O)N[C@H]1[C@H](O[C@H]2[C@@H](O)[C@@H](CO)O[C@@H](O[C@H]3[C@H](O)[C@@H](O)C(O)O[C@@H]3CO)[C@@H]2O)O[C@H](CO)[C@@H](O[C@@H]2O[C@H](CO)[C@H](O)[C@H](O)[C@H]2O)[C@@H]1O` (mixture of isomers) [free LNT, lacto-N-neotetraose], the “lowering of the total IgE response compared to administration of PLA2 alone” value in the assay with IgE response [1] is “not”. In the assay with IgE response [2], the “inhibition of the SEA-specific IgE response (in words)” value was “significantly less effective than free LNFPIII” and the “inhibition of the total IgE response to SEA (in words)” value is “had a greater inhibitory effect”.

Regarding lacto-N-fucopentaose III [free LNFPIII], in the assay with IgE response [1], the “lowering of the total IgE response compared to administration of PLA2 alone” value is recorded as “approximately 70%” and the “reduction of the PLA2-specific IgE response” value was “approximately 40%”. In the assay with IgE response [3], the “reduction in the levels of total IgE as compared to administration of HSA alone” value is on record as “approximately 60%”. In the assay on IgE response [2], the “inhibition of the SEA-specific IgE response (in words)” value is “marked decrease in the antigen-specific IgE response” and the “inhibition of the total IgE response to SEA (in words)” value is reported as “only marginally inhibited”.

With lipopolysaccharide [LPS], in the assay with Human PBMCs [4], the “IL-10, COLON CARCINOMA” value is reported as 8221; the “IL-10, LUNG CARCINOMA” value came out at 1400; the “IL-10, POLLEN ALLERGIC” value came out at 906. For the same compound, in the assay with Granuloma macrophages, the “IL-10 LEVEL 24 HR” value was 7864 pg/mL, the “IL-10 LEVEL 48 HR” value was 6559 pg/mL and the “IL-10 LEVEL 72 HR” value is 4555 pg/mL. In the assay on Human PBMCs [5], the “CPM, COLON CARCINOMA” value is recorded as 222 CPM; the “CPM, LUNG CARCINOMA” value is given as 232 CPM; the “CPM, POLLEN ALLERGIC” value amounted to 1946 CPM. Further, the “IFN-γ, B cells (B220+)” value in assay [6] (B220+ cells) was 0. Further, in assay [6] (B220− cells), the “IFN-γ, Non-B (B220−)” value is 321. In addition, the “IFN-γ, T cells (CD5+)” value in assay [6] (CD5+ cells) amounted to 403. In addition, the “IFN-γ, Non-T (CD5−)” value in assay [6] (CD5− cells) turned out to be 0. In addition, in assay [6] (Thy+ cells), the “IFN-γ, T cells (Thy+)” value is 617. Further, the “IFN-γ, Non-T (Thy−)” value in assay [6] (Thy− cells) was 0. In assay [6] (setting [8]), the “IFN-γ, Total Spleen” value is listed as 47. Moreover, the “IL-10, B cells (B220+)” value in assay [7] (B220+ cells) was 552. The “IL-10, Non-B (B220−)” value in assay [7] (B220− cells) stood at 320. In assay [7] (CD5+ cells), the “IL-10, T cells (CD5+)” value is 264. Also, the “IL-10, Non-T (CD5−)” value in assay [7] (CD5− cells) is given as 430. The “IL-10, T cells (Thy+)” value in assay [7] (Thy+ cells) is 72. Moreover, in assay [7] (Thy− cells), the “IL-10, Non-T (Thy−)” value is reported as 430. Moreover, the “IL-10, Total Spleen” value in assay [7] (setting [8]) was determined as 535.

As for phospholipase A2 [PLA2], in the assay on IgE response [1], the “PLA2-specific IgE response elicited (in words)” value is “elicits a strong PLA2-specific IgE response” and the “total IgE response elicited (in words)” value is recorded as “elicits a strong total IgE response”.
